From patent US20250195530A1, “POLQ INHIBITORS” (ASTRAZENECA AB, priority 2022, published 2025)
Where two headings read alike, the source gives them in different places.

Assays:
DLD-1 cells = experiment: Inhibition of proliferation, DLD-1 BRCA2 wt control (Cell Titre Glo 3D); assay type: cell-based; settings: Homo sapiens, DLD-1, 168 h, 7 days
Method in brief: (§1)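 Proliferation of HR-deficient DLD-1 BRCA2−/− versus isogenic wild-type DLD-1 was measured by ATP luminescence (CellTiter-Glo 3D). Compound exposure lasted 12 or 7 days, respectively, with a fresh dose on day 6. IC50 was the concentration halving maximal signal.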

DLD-1 BRCA2−/− cells = experiment: Homologous recombination synthetic lethal inhibition of proliferation, DLD-1 BRCA2-/- (Cell Titre Glo 3D); assay type: cell-based; settings: Homo sapiens, DLD-1, 288 h, 12 days
Method in brief: as §1

[1] = DLD-1 BRCA2 wt cells, read-out: POLQ PD Prolif Lumin DLD1 mean pIC50 (converted)
[2] = DLD-1 BRCA2−/− cells, read-out: POLQ PD Prolif Lumin BRCA2 −/− mean pIC50 (converted)
[3] = DLD-1 (BRCA2 wt control), Cell Titre Glo 3D, read-out: POLQ PD Prolif Lumin DLD1 Mean pIC50 (converted)
[4] = DLD-1 BRCA2−/−, Cell Titre Glo 3D, read-out: POLQ PD Prolif Lumin BRCA2 −/− Mean pIC50 (converted)

Compound | IC50 (DLD-1 cells; [1]) [nM] | IC50 (DLD-1 BRCA2−/− cells; [2]) [nM] | IC50 (DLD-1 cells; [3]) [nM] | IC50 (DLD-1 BRCA2−/− cells; [4]) [nM]
CC1(Oc2cccc3c2nc(-c2ccc(OCCN4CCNCC4)cc2Cl)n3Cc2cc(Cl)ccn2)CC1 [Example 15, 2-(2-chloro-4-(2-(piperazin-1-yl)ethoxy)phenyl)-1-((4-chloropyridin-2-yl)methyl)-4-(1-methylcyclopropoxy)-1H-benzo[d]imidazole] | 6310 | 251 |  | 
CC1(Oc2nccc3c2nc(-c2ccc(OCCN4CCNCC4)cc2Cl)n3Cc2cc(Cl)ccn2)CC1 [Example 16, 2-(2-chloro-4-(2-(piperazin-1-yl)ethoxy)phenyl)-1-((4-chloropyridin-2-yl)methyl)-4-(1-methylcyclopropoxy)-1H-imidazo[4,5-c]pyridine] | > 10000 | 398 |  | 
CN(C)CCCOc1ccc(-c2nc3c(OC4(C)CC4)ncnc3n2Cc2cc(Cl)ccn2)c(Cl)c1 [Example 17, 3-(3-Chloro-4-(9-((4-chloropyridin-2-yl)methyl)-6-(1-methylcyclopropoxy)-9H-purin-8-yl)phenoxy)-N,N-dimethylpropan-1-amine] | > 10000 | 79.4 |  | 
CC1(Oc2ncnc3c2nc(-c2ccc(OCCN4CC5(CNC5)C4)cc2Cl)n3Cc2ccccc2)CC1 [Example 18, 8-(4-(2-(2,6-Diazaspiro[3.3]heptan-2-yl)ethoxy)-2-chlorophenyl)-9-benzyl-6-(1-methylcyclopropoxy)-9H-purine] | 5010 | 398 |  | 
Cc1cc(N2CC(N)C2)ncc1-c1nc2c(OC3(C)CC3)ncnc2n1Cc1ccccc1 [Example 19, 1-(5-(9-Benzyl-6-(1-methylcyclopropoxy)-9H-purin-8-yl)-4-methylpyridin-2-yl)azetidin-3-amine] | > 10000 | 501 |  | 
CN1CCN(CCOc2cc(Cl)c(-c3nc4c(OC5(C)CC5)ncnc4n3Cc3ccccc3)cn2)CC1 [Example 20, 9-Benzyl-8-(4-chloro-6-(2-(4-methylpiperazin-1-yl)ethoxy)pyridin-3-yl)-6-(1-methylcyclopropoxy)-9H-purine] | 7940 | 398 |  | 
Cc1cc(OCCN2CCCC2)ncc1-c1nc2c(OC3(C)CC3)ncnc2n1Cc1ccccc1 [Example 21, 9-Benzyl-8-(4-methyl-6-(2-(pyrrolidin-1-yl)ethoxy)pyridin-3-yl)-6-(1-methylcyclopropoxy)-9H-purine] | > 10000 | 398 |  | 
Cc1c(OCCN2CCNCC2)cncc1-c1nc2c(OC3(C)CC3)ncnc2n1Cc1ccccc1 [Example 22, 9-Benzyl-8-(4-methyl-5-(2-(piperazin-1-yl)ethoxy)pyridin-3-yl)-6-(1-methylcyclopropoxy)-9H-purine] | > 10000 | 631 |  | 
CC1(Oc2ncnc3c2nc(-c2ccc(OCCN4CCNCC4)cc2Cl)n3Cc2cccc(Cl)n2)CC1 [Example 23, 8-(2-chloro-4-(2-(piperazin-1-yl)ethoxy)phenyl)-9-((6-chloropyridin-2-yl)methyl)-6-(1-methylcyclopropoxy)-9H-purine] | > 10000 | 631 |  | 
Cc1cc(OCCN2CCNCC2)ncc1-c1nc2c(OC3(C)CCC3)ncnc2n1Cc1ccccc1 [Example 24, 9-Benzyl-8-(4-methyl-6-(2-(piperazin-1-yl)ethoxy)pyridin-3-yl)-6-(1-methylcyclobutoxy)-9H-purine] | 3980 | 158 |  | 
Cc1ccnc(Cn2c(-c3ccc(OCCN(C)C)cc3Cl)nc3c(OC4(C)CC4)ncnc32)c1 [Example 25, 2-(3-Chloro-4-(6-(1-methylcyclopropoxy)-9-((4-methylpyridin-2-yl)methyl)-9H-purin-8-yl)phenoxy)-N,N-dimethylethan-1-amine] | > 10000 | 100 |  | 
Cc1ccnc(Cn2c(-c3ccc(OCCN4CC(O)C4)cc3Cl)nc3c(OC4(C)CC4)ncnc32)c1 [Example 26, 1-(2-(3-Chloro-4-(6-(1-methylcyclopropoxy)-9-((4-methylpyridin-2-yl)methyl)-9H-purin-8-yl)phenoxy)ethyl)azetidin-3-ol] | > 10000 | 501 |  | 
Cc1ccnc(Cn2c(-c3ccc(CC(N)=O)cc3Cl)nc3c(OC4(C)CC4)ncnc32)c1 [Example 30, 2-(3-Chloro-4-(6-(1-methylcyclopropoxy)-9-((4-methylpyridin-2-yl)methyl)-9H-purin-8-yl)phenyl)acetamide] |  |  | > 10000 | 631
CC1(Oc2ncnc3c2nc(-c2ccc(/C=C/C(=O)O)cc2Cl)n3Cc2cccc(Cl)c2)CC1 [Example 31, (E)-3-(3-Chloro-4-(9-(3-chlorobenzyl)-6-(1-methylcyclopropoxy)-9H-purin-8-yl)phenyl)acrylic acid] |  |  | > 10000 | 398
CC1(Oc2ncnc3c2nc(-c2ccc(OCC(C)(C)C(=O)O)cc2Cl)n3Cc2cccc(Cl)c2)CC1 [Example 32, 3-(3-Chloro-4-(9-(3-chlorobenzyl)-6-(1-methylcyclopropoxy)-9H-purin-8-yl)phenoxy)-2,2-dimethylpropanoic acid] |  |  | > 10000 | 631
Cc1ccnc(Cn2c(-c3ccc(OCCO)cc3Cl)nc3c(OC4(C)CC4)ncnc32)c1 [Example 33, 2-(3-Chloro-4-(6-(1-methylcyclopropoxy)-9-((4-methylpyridin-2-yl)methyl)-9H-purin-8-yl)phenoxy)ethan-1-ol] |  |  | > 10000 | 126
Cc1ccnc(Cn2c(-c3ccc(OC[C@H](C)O)cc3Cl)nc3c(OC4(C)CC4)ncnc32)c1 [Example 36, (S)-1-(3-Chloro-4-(6-(1-methylcyclopropoxy)-9-((4-methylpyridin-2-yl)methyl)-9H-purin-8-yl)phenoxy)propan-2-ol] |  |  | > 10000 | 251
Cc1ccnc(Cn2c(-c3ccc(OC[C@@H](C)O)cc3Cl)nc3c(OC4(C)CC4)ncnc32)c1 [Example 37, (R)-1-(3-Chloro-4-(6-(1-methylcyclopropoxy)-9-((4-methylpyridin-2-yl)methyl)-9H-purin-8-yl)phenoxy)propan-2-ol] |  |  | > 10000 | 126
CC1(Oc2ncnc3c2nc(-c2ccc(CC(N)=O)cc2Cl)n3Cc2cc(Cl)ccn2)CC1 [Example 38, 2-(3-Chloro-4-(9-((4-chloropyridin-2-yl)methyl)-6-(1-methylcyclopropoxy)-9H-purin-8-yl)phenyl)acetamide] |  |  | > 10000 | 398
Cc1ccnc(Cn2c(-c3ccc(OC4CN(C(=O)CO)C4)cc3Cl)nc3c(OC4(C)CC4)ncnc32)c1 [Example 39, 1-(3-(3-Chloro-4-(6-(1-methylcyclopropoxy)-9-((4-methylpyridin-2-yl)methyl)-9H-purin-8-yl)phenoxy)azetidin-1-yl)-2-hydroxyethan-1-one] |  |  | > 10000 | 158
CC(=O)N1CC(Oc2ccc(-c3nc4c(OC5(C)CC5)ncnc4n3Cc3cc(C)ccn3)c(Cl)c2)C1 [Example 40, 1-(3-(3-Chloro-4-(6-(1-methylcyclopropoxy)-9-((4-methylpyridin-2-yl)methyl)-9H-purin-8-yl)phenoxy)azetidin-1-yl)ethan-1-one] |  |  | > 10000 | 158
Cc1ccnc(Cn2c(-c3ccc(O[C@H]4CCC(=O)NC4)cc3Cl)nc3c(OC4(C)CC4)ncnc32)c1 [Example 41, (S)-5-(3-Chloro-4-(6-(1-methylcyclopropoxy)-9-((4-methylpyridin-2-yl)methyl)-9H-purin-8-yl)phenoxy)piperidin-2-one] |  |  | > 10000 | 794
